≈ marks a conversion by molar mass, not a printed value.
Key:
chorioallantoic membrane = assay: HET-CAM assay (Hen's Egg Test on the Chorioallantoic Membrane), German protocol; assay type: in vivo, Gallus gallus domesticus; settings: RW3 at 100 µM
Protocol: Gallus gallus domesticus eggs (n = 3) at the eighth day of embryonic development were incubated at 37 ± 2 °C and 50% humidity until the test. On the tenth day, the solutions of RW3 (100 µM), 1% DMSO in saline (diluent), 0.1 mol/L NaOH (positive control), and saline solution (negative control) were placed on the chorioallantoic membrane. Following the application of 300 µL of each solution, according to the German protocol, the changes in the membrane were recorded for 300 s, indicating the time of onset of each observed phenomenon (hemorrhage, lysis, and coagulation) and using the following formula to calculate the Irritation Score (IS) (Equation (1)). Each experiment was repeated two times.IS = (301 − sH)/300 × 5 + (301 − sL)/300 × […] + (301 − sC)/300 × 9,(1) where H = hemorrhage, L—lysis, C = coagulation, and s = start second.
Additionally, to assess the possibility of irritation caused by RW3, the Hen’s Egg Test on the Chorioallantoic Membrane (HET-CAM) was performed. The HET-CAM assay is an in vivo semiquantitative test to evaluate the anti-inflammatory potential and anti-irritant properties, as well as the ocular toxicity of compounds/formulations. The benefits of this test include its simplicity, rapid execution, ease of use, and relatively low cost.

S. brasiliensis (189) = assay: Broth microdilution MIC (CLSI M27-A3 with modifications), yeast phase; assay type: cell-based; settings: Sporothrix brasiliensis, 168 h, 7 days at 35 °C and CO2 5%, read-out: Minimal Inhibitory Concentration (MIC) S. brasiliensis
Protocol: Broth microdilution testing was conducted following the guidelines in the CLSI document M27-A3 (2008) with modifications. Briefly, the following yeast were used in the present study: C. albicans SC5314, C. tropicalis ATCC 750, Candidozyma (Candida) auris COLO 01, C. parapsilosis ATCC 22019, Pichia kudravzevii (C. krusei) ATCC 20298, C. gattii ATCC 24065, C. neoformans ATCC 24067, and S. brasiliensis (189). All fungus strains were stored at a temperature of −80 °C. Before conducting the experiments, the strains were cultivated on Sabouraud dextrose agar (HiMedia, Mumbai, India) at 35 °C to ensure their purity and viability. The yeast phase of S. brasiliensis was grown on brain–heart infusion agar (BHI; Difco, Detroit, MI, USA) with two successive passages of 7 days at 35 °C and CO2 5% [11]. The compounds were tested at concentrations of 0.125–250 µg/mL. For comparative antifungal controls, fluconazole (Sigma-Aldrich, St. Louis, MO, USA), itraconazole (Sigma-Aldrich, St. Louis, MO, USA), and caspofungine (Sigma-Aldrich, St. Louis, MO, USA) were included. The plates were incubated at 35 °C for 48 h for yeast and for 7 days for S. brasiliensis at 35 °C and CO2 5%. The tests were performed in triplicate. The endpoints were determined visually by comparison with the endpoints of the drug-free growth-control well. […]

Row | MIC (S. brasiliensis (189)) [µg/mL] | SMILES | Irritation Score (chorioallantoic membrane; 300 µL on chorioallantoic membrane, 300 s, mean of six eggs) | Classification (irritation potential) (chorioallantoic membrane; HET-CAM, German protocol)
1 |  | [Na+].[OH-] [0.1 M NaOH, NaOH, reference compound] | 12.00 | Severe irritant
2 | 0.5 (≈ 0.709 µM) | CCC(C)n1ncn(-c2ccc(N3CCN(c4ccc(OCC5COC(Cn6cncn6)(c6ccc(Cl)cc6Cl)O5)cc4)CC3)cc2)c1=O (stereo not drawn) [Itraconazole, itraconazole, reference compound] |  | 

— paper PMC11766867, “Novel 2-Thiazolylhydrazone with Druggable Properties for Antifungal Application” (Journal of Fungi, 2025)
